≈ marks a conversion by molar mass, not a printed value.
Experiments:
E. faecalis ATCC 29212 = test: MIC, NCCLS broth microdilution assay; type: cell-based, Enterococcus faecalis; conditions: C = E. faecalis ATCC 29212
Procedure: (§1) Compounds according to this invention were screened for their in vitro activities against selected species of bacteria and fungi. The minimal inhibition concentration (MIC) of these compounds was determined using the National Committee for Clinical Laboratory Standards (NCCLS) broth microdilution assay in microtiter plates, as set forth in: (1) the guidelines of the National. Committee for Clinical Laboratory Standards (NCCLS) Document M7-A4 (NCCLS, 1997); (2) the guidelines of the National Committee for Clinical Laboratory Standards (NCCLS) Document M11-A4 (NCCLS, 1997); and (3) the guidelines and reference method of the National Committee for Clinical Laboratory Standards (NCCLS) Document M27-T (NCCLS, 1995). For antifungal assays, the method recommended in Murray, P R., 1995 Manual of Clinical Microbiology (ASM Press, Washington, D.C.), was employed.

[1] = tested on: Candida albicans (ATCC 38247); test: Antifungal MIC assay; type: cell-based; conditions: B = C. albicans ATCC 38247
Description: (§2) In vitro biological activity data were collected for a variety of microorganisms, including Bacillus cereus (ATCC 11778), Staphylococcus aureus (ATCC 27660, a methicillin resistant strain (MRSA); ATCC 13709, a methicillin sensitive strain (MSSA)); Streptococcus pneumoniae (ATCC 51422, a penicillin resistant strain (PRSP)), Enterococcus faecium (ATCC 51559, a vancomycin resistant strain (VRE)), and Staphylococcus epidermidis (ATCC 12228). Additionally, antifungal activity data were collected for Candida albicans (ATCC 38247).
as §1

S. pneumoniae ATCC 49619 = test: MIC, NCCLS broth microdilution assay; type: cell-based, Streptococcus pneumoniae; conditions: H = S. pneumoniae ATCC 49619
Procedure: as §1

[2] = tested on: Bacillus cereus (ATCC 11778); test: MIC, NCCLS broth microdilution assay; type: cell-based; conditions: A = B. cereus ATCC 11778
Description: as §2, §1

[3] = tested on: Staphylococcus aureus (ATCC 27660, a methicillin resistant strain (MRSA)); test: MIC, NCCLS broth microdilution assay; type: cell-based; conditions: F = S. aureus ATCC 27660
Description: as §2, §1

[4] = tested on: Staphylococcus aureus (ATCC 13709, a methicillin sensitive strain (MSSA)); test: MIC, NCCLS broth microdilution assay; type: cell-based; conditions: E = S. aureus ATCC 13709
Description: as §2, §1

[5] = Staphylococcus aureus, read-out: Minimum Inhibitory Concentration (MIC)

Row | Compound | Minimum Inhibitory Concentration (MIC) (E. faecalis ATCC 29212) | Minimum Inhibitory Concentration (MIC) [1] | Minimum Inhibitory Concentration (MIC) (S. pneumoniae ATCC 49619) | Minimum Inhibitory Concentration (MIC) [2] | Minimum Inhibitory Concentration (MIC) [3] | Minimum Inhibitory Concentration (MIC) [4] | MIC (E. faecalis ATCC 29212; Enterococcus faecalis, ATCC29212, read-out: Minimum Inhibitory Concentration (MIC)) [µg/mL] | MIC ([1]; Candida albicans, ATCC38247, read-out: Minimum Inhibitory Concentration (MIC)) [µg/mL] | MIC (S. pneumoniae ATCC 49619; Streptococcus pneumoniae, ATCC49619, read-out: Minimum Inhibitory Concentration (MIC)) [µg/mL] | MIC ([2]; Bacillus cereus, ATCC11778, read-out: Minimum Inhibitory Concentration (MIC)) [µg/mL] | MIC [3, 5] [µg/mL] | MIC [4, 5] [µg/mL]
1 | Cn1cc(NC(=O)c2cc(NC(=O)c3cc(NC(=O)c4ccc(F)cc4F)cn3C)cn2C)cc1C(=O)NCCN1CCCC1 [Compound B-5] | +++ (+++ = MIC ≦ 4) | >32 µg/mL | +++ (+++ = MIC ≦ 4) | +++ (+++ = MIC ≦ 4) | +++ (+++ = MIC ≦ 4) | +++ (+++ = MIC ≦ 4) |  |  |  |  |  | 
2 | Cc1cc(NC(=O)c2cc(NC(=O)c3cc(NC(=O)c4ccc(Cl)cc4NCCCN4CCOCC4)cn3C)c[nH]2)sn1 [Compound C-25] | >32 µg/mL | >32 µg/mL | +++ (+++ = MIC ≦ 4) | >32 µg/mL | >32 µg/mL | >32 µg/mL |  |  |  |  |  | 
3 | Cn1cc(NC(=O)c2cc(NC(=O)c3cc(NC(=O)c4ccc(F)cc4F)no3)cn2C)cc1C(=O)NCCN1CCOCC1 [Compound E-8] |  |  |  |  |  |  | ≤ 4 | > 32 | ≤ 4 | 12 to 32 (≈ 19.2 to 51.2 µM) | ≤ 4 | ≤ 4
4 | Cn1cc(NC(=O)c2cc(NC(=O)c3cc(NC(=O)c4ccc(F)cc4NCCCNC4CCCCC4)cn3C)cn2C)cc1C(N)=O [Compound B-51] | >32 µg/mL | >32 µg/mL | + (+ = 12 ≦ MIC ≦ 32) | ++ (++ = 4 < MIC < 12) | + (+ = 12 ≦ MIC ≦ 32) | ++ (++ = 4 < MIC < 12) |  |  |  |  |  | 
5 | Cn1cc(NC(=O)c2cc(NC(=O)c3cc(NC(=O)c4ccc(Cl)cc4NCCCNC4CCCCC4)cn3C)cn2C)cc1C(N)=O [Compound B-63] | >32 µg/mL | >32 µg/mL | +++ (+++ = MIC ≦ 4) | + (+ = 12 ≦ MIC ≦ 32) | +++ (+++ = MIC ≦ 4) | +++ (+++ = MIC ≦ 4) |  |  |  |  |  | 
6 | Cn1cc(NC(=O)c2cc(NC(=O)c3cc(NC(=O)c4ccc(Br)cc4F)cn3C)cn2C)cc1C(=O)NCCN1CCOCC1 [Compound B-83] | +++ (+++ = MIC ≦ 4) | >32 µg/mL | +++ (+++ = MIC ≦ 4) | +++ (+++ = MIC ≦ 4) | +++ (+++ = MIC ≦ 4) | +++ (+++ = MIC ≦ 4) |  |  |  |  |  | 
7 | CN(C)CCCn1cc(NC(=O)c2cc(NC(=O)c3ccc(F)cc3F)cn2C)cc1C(=O)Nc1cc(C(=O)NCCN2CCOCC2)n(C)c1 [Compound D-7] | +++ (+++ = MIC ≦ 4) | + (+ = 12 ≦ MIC ≦ 32) | +++ (+++ = MIC ≦ 4) | +++ (+++ = MIC ≦ 4) | +++ (+++ = MIC ≦ 4) | +++ (+++ = MIC ≦ 4) |  |  |  |  |  | 
8 | Cc1cc(NC(=O)c2cc(NC(=O)c3cc(NC(=O)c4ccc(Cl)cc4NCCN4CCOCC4)cn3C)c[nH]2)sn1 [Compound C-21] | ++ (++ = 4 < MIC < 12) | >32 µg/mL | +++ (+++ = MIC ≦ 4) | ++ (++ = 4 < MIC < 12) | +++ (+++ = MIC ≦ 4) | ++ (++ = 4 < MIC < 12) |  |  |  |  |  | 
9 | CN(C)CC(C)(C)CNC(=O)c1cc(NC(=O)c2cc(NC(=O)c3cc(NC(=O)c4ccc(Cl)cc4F)c[nH]3)cn2C)cn1C [Compound A-14] | +++ (+++ = MIC ≦ 4) | + (+ = 12 ≦ MIC ≦ 32) | +++ (+++ = MIC ≦ 4) | +++ (+++ = MIC ≦ 4) | +++ (+++ = MIC ≦ 4) | +++ (+++ = MIC ≦ 4) |  |  |  |  |  | 
10 | Cn1cc(NC(=O)c2cc(NC(=O)c3cc(NC(=O)c4ccc(OC(F)F)cc4)cn3C)cn2C)cc1C(=O)NCCN1CCCCC1 [Compound B-85] | +++ (+++ = MIC ≦ 4) | + (+ = 12 ≦ MIC ≦ 32) | +++ (+++ = MIC ≦ 4) | +++ (+++ = MIC ≦ 4) | +++ (+++ = MIC ≦ 4) | +++ (+++ = MIC ≦ 4) |  |  |  |  |  | 
11 | Cn1cc(NC(=O)c2cc(NC(=O)c3ccc(Cl)cc3F)c[nH]2)cc1C(=O)NCCN1CCCC1 [Compound A-19] | +++ (+++ = MIC ≦ 4) | >32 µg/mL | +++ (+++ = MIC ≦ 4) | + (+ = 12 ≦ MIC ≦ 32) | +++ (+++ = MIC ≦ 4) | ++ (++ = 4 < MIC < 12) |  |  |  |  |  | 
12 | Cn1cc(NC(=O)c2cc(NC(=O)c3cc(NC(=O)c4ccc(F)cc4F)cn3C)cn2C)cc1C(=O)NCCCNC1CCCCC1 [Compound B-7] | +++ (+++ = MIC ≦ 4) | >32 µg/mL | +++ (+++ = MIC ≦ 4) | +++ (+++ = MIC ≦ 4) | +++ (+++ = MIC ≦ 4) | +++ (+++ = MIC ≦ 4) |  |  |  |  |  | 
13 | Cn1cc(NC(=O)c2cc(NC(=O)c3ccc(F)cc3F)cn2C)cc1C(=O)NCCN1CCCC1 [Compound B-16] | +++ (+++ = MIC ≦ 4) | >32 µg/mL | +++ (+++ = MIC ≦ 4) | ++ (++ = 4 < MIC < 12) | ++ (++ = 4 < MIC < 12) | ++ (++ = 4 < MIC < 12) |  |  |  |  |  | 
14 | Cn1cc(NC(=O)c2cc(NC(=O)c3cc(NC(=O)c4ccc(Cl)cc4F)cn3C)cn2CCCCl)cc1C(=O)NCCN1CCOCC1 [Compound C-18] | +++ (+++ = MIC ≦ 4) | >32 µg/mL | +++ (+++ = MIC ≦ 4) | +++ (+++ = MIC ≦ 4) | +++ (+++ = MIC ≦ 4) | +++ (+++ = MIC ≦ 4) |  |  |  |  |  | 
15 | CN(C)CC(C)(C)CNC(=O)c1cc(NC(=O)c2cc(NC(=O)c3ccc(F)cc3F)cn2C)cn1C [Compound B-15] | >32 µg/mL | >32 µg/mL | + (+ = 12 ≦ MIC ≦ 32) | >32 µg/mL | >32 µg/mL | >32 µg/mL |  |  |  |  |  | 
16 | Cn1cc(NC(=O)c2cc(NC(=O)c3cc(NC(=O)c4ccc(Cl)cc4NCCN4CCCCC4)cn3C)cn2C)cc1C(N)=O [Compound B-65] | + (+ = 12 ≦ MIC ≦ 32) | >32 µg/mL | ++ (++ = 4 < MIC < 12) | ++ (++ = 4 < MIC < 12) | ++ (++ = 4 < MIC < 12) | + (+ = 12 ≦ MIC ≦ 32) |  |  |  |  |  | 
17 | Cn1cc(NC(=O)c2cc(NC(=O)c3cc(NC(=O)c4ccc(F)cc4F)cn3C)cn2CCCO)cc1C(=O)NCCN1CCOCC1 [Compound C-4] | + (+ = 12 ≦ MIC ≦ 32) | >32 µg/mL | +++ (+++ = MIC ≦ 4) | + (+ = 12 ≦ MIC ≦ 32) | + (+ = 12 ≦ MIC ≦ 32) | + (+ = 12 ≦ MIC ≦ 32) |  |  |  |  |  | 
18 | Cn1cc(NC(=O)c2cc(NC(=O)c3cc(NC(=O)c4ccc(F)cc4F)cn3C)cn2C)cc1C(=O)NCCN1CCC(O)CC1 [Compound B-19] | +++ (+++ = MIC ≦ 4) | >32 µg/mL | +++ (+++ = MIC ≦ 4) | +++ (+++ = MIC ≦ 4) | +++ (+++ = MIC ≦ 4) | +++ (+++ = MIC ≦ 4) |  |  |  |  |  | 

Reference: patent publication US7348427B2, “Antipathogenic benzamide compounds” (Genesoft Pharmaceuticals, Inc., priority 2001, dated 2008)
